Experimental data reported in patent US12370235B2, “Synthetic, non-natural antimicrobial peptides inspired by Staphylococcus auricularis delta toxin” (University of Saskatchewan, priority 2021, dated 2025).
Ends that are not written are not given here.

Experiments:
[1] = system: S. aureus ATCC 33592 (MRSA SCCmec type III); experiment: MIC, broth dilution; assay type: cell-based, Staphylococcus aureus; conditions: Table 5; STIP3 variants, highest concentration 100 μg/mL
Procedure, shortened: (§1)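 MIC defined as the lowest peptide level giving no growth after overnight standing incubation at 37° C. Bacteria at OD 6×10^−4 in cation-adjusted MH broth met 2-fold serial peptide dilutions; peptide purity 95%.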

S. aureus ATCC 29213 = experiment: MIC, broth dilution; assay type: cell-based, Staphylococcus aureus; conditions: Table 5; STIP3 variants, highest concentration 100 μg/mL
Procedure, shortened: as §1

[2] = Circular dichroism spectroscopy; assay type: physicochemical; conditions: CD, 50% (v/v) TFE
Text: The δ-toxins and the PSMs are characterized as α-helical peptides that form amyloid fibers^48. Although the propensity of individual peptides to form amyloids is correlated to their cytotoxicity^49, the amyloid form is not directly implicated in cell membrane disruption^50. […] CD spectroscopy was used to investigate the secondary structure of a subset of peptides within the collection (FIG. 4A, Table 5). The STIP variants adopted α-helical forms in 50% (v/v) trifluoroethanol (TFE), though unlike the full-length S. auricularis δ-toxin, they were unstructured in water. […] Specifically, peptides characterized by the greatest and least α-helical content in TFE had MICs above the highest tested threshold.
Circular dichroism spectroscopy. Peptides were dissolved in water at concentrations between 0.3 and 0.5 mg/mL. CD spectra were recorded on an Applied Photophysics Chirascan Plus CD spectrophotometer at room temperature in a 0.1 cm path-length quartz cuvette. Spectra were recorded from 180 to 260 nm.

[3] = system: S. aureus / MRSA (ATCC MP-2 panel); assay type: cell-based, Staphylococcus aureus
Method: In order to begin to characterize STIP3-1 and potential sites amenable to modification, an alanine scanning experiment was performed. A total of 16 peptides with single alanine substitutions were assessed to inform on the importance of individual residues to antimicrobial activity. […] Next a series of thirty STIP3-1 variants were designed, guided by the aforementioned alanine scan and a previous report that the central α-helical core of the S. aureus δ-toxin could be converted into AMP through the inclusion of additional lysine residues^39. The collection included ten members with single substitutions relative to STIP3-1 and others that incorporated a number of changes that were designed to increase overall and local cationic charge as well as hydrophobic character (Table 5). Each of the STIPs was screened, including STIP3-1 to STIP-31, for antibiotic activity against a methicillin-sensitive S. aureus test organism and a panel of 7 MRSA strains defined by distinct SCCmec genotypes (FIG. 2; ATCC MP-2).
Determination of minimum inhibitory concentrations. The MICs were measured for bioactive peptides identified from the initial screen. For bacterial studies, cation-adjusted Mueller Hinton (MH) broth was used as the growth medium whereas YPD was used for C. albicans. Bacterial cultures were diluted to a OD value of 6×10^−4 in MH broth and a 180 μl volume was mixed with 20 μl of peptide arrayed as 2-fold dilution series in a 96-well plate. For the positive control, 20 μl of sterile water was used. Plates were incubated as standing cultures overnight at 37° C. The lowest peptide concentration that resulted no observed microbial growth after an overnight treatment was defined as the MIC.

[4] = system: Mannheimia haemolytica ATCC 33393; experiment: MIC, broth dilution; assay type: cell-based; conditions: Table 11; highest concentration 25 μg/mL
Procedure, shortened: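 Peptides (95% purity) in 2-fold dilution series were mixed with M. haemolytica diluted to OD 6×10^−4 in cation-adjusted Mueller Hinton broth and incubated standing overnight at 37 °C. MIC was the lowest concentration with no visible growth.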

[5] = system: S. aureus ATCC BAA-1683 (MRSA SCCmec type IV); experiment: MIC, broth dilution; assay type: cell-based, Staphylococcus aureus; conditions: Table 5; STIP3 variants, highest concentration 100 μg/mL
Procedure, shortened: as §1

[6] = system: S. aureus ATCC BAA-2313 (MRSA SCCmec type XI); experiment: MIC, broth dilution; assay type: cell-based, Staphylococcus aureus; conditions: Table 5; STIP3 variants, highest concentration 100 μg/mL
Procedure, shortened: as §1

[7] = system: S. aureus ATCC BAA-42 (MRSA SCCmec type VI); experiment: MIC, broth dilution; assay type: cell-based, Staphylococcus aureus; conditions: Table 5; STIP3 variants, highest concentration 100 μg/mL
Procedure, shortened: as §1

[8] = system: S. aureus ATCC BAA-41 (MRSA SCCmec type II); experiment: MIC, broth dilution; assay type: cell-based, Staphylococcus aureus; conditions: Table 5; STIP3 variants, highest concentration 100 μg/mL
Procedure, shortened: as §1

[9] = system: S. aureus ATCC BAA-44 (MRSA SCCmec type I); experiment: MIC, broth dilution; assay type: cell-based, Staphylococcus aureus; conditions: Table 5; STIP3 variants, highest concentration 100 μg/mL
Procedure, shortened: as §1

[10] = system: S. aureus ATCC BAA-2094 (MRSA SCCmec type V); experiment: MIC, broth dilution; assay type: cell-based, Staphylococcus aureus; conditions: Table 5; STIP3 variants, highest concentration 100 μg/mL
Procedure, shortened: as §1

[11] = system: Candida duobushaemulonii AR 394; experiment: MIC, YPD broth, CDC and FDA AR Candida isolate panel; assay type: cell-based; conditions: Table 9 below the line: only 200 or 100 μg/mL tested; values reported as 100 are ≤100 μg/mL
Procedure, shortened: (§2)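 Medium: 10 g/L yeast extract, 20 g/L peptone, 20 g/L dextrose. Inoculum OD […]; peptides 95% purity, 2-fold series; overnight 37° C, standing.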

Kodamae ohmeri AR 396 = experiment: as above; assay type: cell-based; conditions: Table 9 below the line: only 200 or 100 μg/mL tested; values reported as 100 are ≤100 μg/mL
Procedure, shortened: as §2

[12] = system: Saccharomyces cerevisiae AR 400; experiment: as above; assay type: cell-based; conditions: Table 9 below the line: only 200 or 100 μg/mL tested; values reported as 100 are ≤100 μg/mL
Procedure, shortened: as §2

[13] = system: Candida haemulonii AR 395; experiment: as above; assay type: cell-based; conditions: Table 9 below the line: only 200 or 100 μg/mL tested; values reported as 100 are ≤100 μg/mL
Procedure, shortened: as §2

[14] = system: Candida lusitaniae AR 398; experiment: as above; assay type: cell-based; conditions: Table 9 below the line: only 200 or 100 μg/mL tested; values reported as 100 are ≤100 μg/mL
Procedure, shortened: as §2

[15] = system: Candida haemulonii AR 393; experiment: as above; assay type: cell-based; conditions: Table 9 below the line: only 200 or 100 μg/mL tested; values reported as 100 are ≤100 μg/mL
Procedure, shortened: as §2

[16] = system: Candida duobushaemulonii AR 391; experiment: as above; assay type: cell-based; conditions: Table 9 below the line: only 200 or 100 μg/mL tested; values reported as 100 are ≤100 μg/mL
Procedure, shortened: as §2

[17] = system: Saccharomyces cerevisiae AR 399; experiment: as above; assay type: cell-based; conditions: Table 9 below the line: only 200 or 100 μg/mL tested; values reported as 100 are ≤100 μg/mL
Procedure, shortened: as §2

Candida krusei AR 397 = experiment: as above; assay type: cell-based; conditions: Table 9 below the line: only 200 or 100 μg/mL tested; values reported as 100 are ≤100 μg/mL
Procedure, shortened: as §2

[18] = system: Candida duobushaemulonii AR 392; experiment: as above; assay type: cell-based; conditions: Table 9 below the line: only 200 or 100 μg/mL tested; values reported as 100 are ≤100 μg/mL
Procedure, shortened: as §2

C. albicans MYA-2876 = experiment: MIC, YPD broth; assay type: cell-based, Candida albicans; conditions: Table 8
Procedure, shortened: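 Minimum inhibitory concentrations against Candida albicans were determined in YPD broth (10 g/L yeast extract, 20 g/L peptone, 20 g/L dextrose) using peptides of 95% purity. A 180 μl volume of diluted yeast was combined with 20 μl of peptide in a 2-fold dilution series in 96-well plates, with sterile water as control, then incubated standing overnight at 37° C.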

C. albicans Y537 = experiment: MIC, YPD broth; assay type: cell-based, Candida albicans; conditions: Table 8

Substance: TVGGLVKWILKTVKKFA-NH2 [STIP3-29-D3]
- MIC S. aureus ATCC 33592 (III) [1]: > (no inhibition was observed at the highest concentration of peptide tested: 100 μg/mL for the STIP3 variants)
- MIC S. aureus ATCC 29213 (S. aureus ATCC 29213): > (no inhibition was observed at the highest concentration of peptide tested: 100 μg/mL for the STIP3 variants)
- α helicity (%) [2]: 32%
- fold increase of MIC relative to STIP3-29 [3]: greater than 16 fold

Substance: TVKVLVKWILKVVAKFA [STIP3-26, TVKVLVKWILKVVAKFA]
- MIC (μg/mL) M. haemolytica [4]: > (> symbol indicates that no inhibition was observed at the highest concentration of peptide tested: 25 μg/mL)
- MIC S. aureus ATCC 33592 (III) [1]: > (no inhibition was observed at the highest concentration of peptide tested: 100 μg/mL for the STIP3 variants)
- MIC S. aureus ATCC BAA 1683 (IV) [5]: > (no inhibition was observed at the highest concentration of peptide tested: 100 μg/mL for the STIP3 variants)
- MIC S. aureus ATCC BAA 2313 (XI) [6]: > (no inhibition was observed at the highest concentration of peptide tested: 100 μg/mL for the STIP3 variants)
- MIC S. aureus ATCC 29213 (S. aureus ATCC 29213): > (no inhibition was observed at the highest concentration of peptide tested: 100 μg/mL for the STIP3 variants)
- MIC S. aureus ATCC BAA 42 (VI) [7]: > (no inhibition was observed at the highest concentration of peptide tested: 100 μg/mL for the STIP3 variants)
- MIC S. aureus ATCC BAA 41 (II) [8]: > (no inhibition was observed at the highest concentration of peptide tested: 100 μg/mL for the STIP3 variants)
- MIC S. aureus ATCC BAA 44 (I) [9]: > (no inhibition was observed at the highest concentration of peptide tested: 100 μg/mL for the STIP3 variants)
- MIC S. aureus ATCC BAA 2094 (V) [10]: > (no inhibition was observed at the highest concentration of peptide tested: 100 μg/mL for the STIP3 variants)
- MIC (μg/mL) Candida duobushaemulonii AR 394 [11]: > (values below the line were determined using two concentrations of peptide 200 or 100 μg/mL)
- MIC (μg/mL) Kodamae ohmeri AR 396 (Kodamae ohmeri AR 396): > (values below the line were determined using two concentrations of peptide 200 or 100 μg/mL)
- MIC (μg/mL) Saccharomyces cerevisiae AR 400 [12]: ≤ 100 µg/mL
- MIC (μg/mL) Candida haemulonii AR 395 [13]: > (values below the line were determined using two concentrations of peptide 200 or 100 μg/mL)
- MIC (μg/mL) Candida lusitaniae AR 398 [14]: ≤ 100 µg/mL
- MIC (μg/mL) Candida haemulonii AR 393 [15]: > (values below the line were determined using two concentrations of peptide 200 or 100 μg/mL)
- MIC (μg/mL) Candida duobushaemulonii AR 391 [16]: > (values below the line were determined using two concentrations of peptide 200 or 100 μg/mL)
- MIC (μg/mL) Saccharomyces cerevisiae AR 399 [17]: ≤ 100 µg/mL
- MIC (μg/mL) Candida krusei AR 397 (Candida krusei AR 397): > (values below the line were determined using two concentrations of peptide 200 or 100 μg/mL)
- MIC (μg/mL) Candida duobushaemulonii AR 392 [18]: > (values below the line were determined using two concentrations of peptide 200 or 100 μg/mL)
- inhibition of S. aureus ([3]; MIC screen, in words): incapable of inhibiting S. aureus
- MIC C. albicans MYA-2876 (C. albicans MYA-2876): > (> symbol indicates that no inhibition was observed at the highest concentration of peptide tested: 100 μg/mL)
- MIC C. albicans Y537 (C. albicans Y537): > (> symbol indicates that no inhibition was observed at the highest concentration of peptide tested: 100 μg/mL)
